Reference: the CheMixHub viscosity set

Test: xn = mol fraction of the nth substance listed

C=C(C)C(=O)OC + CC(C)OC(C)C
viscosity [mPa·s], 101.3 kPa
Conditions | 298.15 K | 308.15 K
x1 = 0.0416 | 0.385 | 0.291
x1 = 0.1479 | 0.401 | 0.309
x1 = 0.2488 | 0.417 | 0.326
x1 = 0.3488 | 0.434 | 0.344
x1 = 0.4527 | 0.453 | 0.364
x1 = 0.4958 | 0.461 | 0.372
x1 = 0.5472 | 0.472 | 0.383
x1 = 0.6489 | 0.493 | 0.404
x1 = 0.7504 | 0.517 | 0.427
x1 = 0.8502 | 0.542 | 0.451
x1 = 0.944 | 0.569 | 0.474

C[C@H](N)C(=O)N[C@@H](CCC(N)=O)C(=O)O + O
Conditions | viscosity [mPa·s]
298.15 K, 101 kPa, x1 = 0.0008999 | 0.919

ClCCCCCCCl + c1ccccc1
viscosity [mPa·s], 101 kPa
Conditions | x1 = 0.09315 | x1 = 0.1846 | x1 = 0.2859 | x1 = 0.3958 | x1 = 0.5003 | x1 = 0.5842 | x1 = 0.6836 | x1 = 0.7842 | x1 = 0.8829
308.15 K | 0.565 | 0.613 | 0.668 | 0.733 | 0.824 | 0.92 | 1.066 | 1.217 | 1.393
313.15 K | 0.546 | 0.591 | 0.645 | 0.704 | 0.789 | 0.888 | 1.014 | 1.164 | 1.324
318.15 K | 0.505 | 0.548 | 0.594 | 0.642 | 0.72 | 0.809 | 0.929 | 1.056 | 1.197

C=C(C)C(=O)OC + CC(C)CO
viscosity [mPa·s], 101.3 kPa
Conditions | 298.15 K | 308.15 K
x1 = 0.0547 | 2.74 | 2.077
x1 = 0.1398 | 2.067 | 1.621
x1 = 0.2311 | 1.576 | 1.274
x1 = 0.33 | 1.22 | 1.012
x1 = 0.4577 | 0.927 | 0.788
x1 = 0.5037 | 0.852 | 0.73
x1 = 0.5427 | 0.799 | 0.687
x1 = 0.6552 | 0.686 | 0.595
x1 = 0.7288 | 0.638 | 0.553
x1 = 0.8409 | 0.594 | 0.512
x1 = 0.9341 | 0.581 | 0.495

CCCCCCCCCCCC(=O)[O-].[Na+] + CCCCCCCCCC(=O)O
101 kPa, x1 = 0.2
Conditions | viscosity [mPa·s]
293.15 K | 76.59
298.15 K | 60.48
303.15 K | 48.43
308.15 K | 39.29
313.15 K | 32.27
318.15 K | 26.79
323.15 K | 22.48

[Sn] + [Ga]
323 K, 100 kPa
Conditions | viscosity [mPa·s]
x1 = 0.085 | 1.693
x1 = 0.164 | 2.223
x1 = 0.37 | 3.637
x1 = 0.638 | 5.381
x1 = 0.841 | 6.576

C=C(C)C(=O)OC + CO
viscosity [mPa·s], 101 kPa
Conditions | x2 = 0.1152 | x2 = 0.2092 | x2 = 0.3024 | x2 = 0.4008 | x2 = 0.5011 | x2 = 0.6041 | x2 = 0.7013 | x2 = 0.8003 | x2 = 0.9033
293.15 K | 0.5752 | 0.5665 | 0.5622 | 0.5592 | 0.5546 | 0.5576 | 0.5612 | 0.5709 | 0.5792
298.15 K | 0.5416 | 0.5329 | 0.5294 | 0.5266 | 0.5222 | 0.5232 | 0.5269 | 0.5357 | 0.5425
303.15 K | 0.5126 | 0.5046 | 0.5012 | 0.4973 | 0.4928 | 0.4944 | 0.4965 | 0.5036 | 0.5088
308.15 K | 0.4841 | 0.4783 | 0.4739 | 0.4705 | 0.4665 | 0.4673 | 0.4689 | 0.4748 | 0.4792
313.15 K | 0.4611 | 0.4552 | 0.4511 | 0.4474 | 0.4428 | 0.4435 | 0.4441 | 0.4493 | 0.4529
318.15 K | 0.4391 | 0.4335 | 0.4297 | 0.4261 | 0.4212 | 0.4228 | 0.4243 | 0.4259 | 0.4285
323.15 K | 0.4195 | 0.4138 | 0.4101 | 0.4063 | 0.4022 | 0.4031 | 0.4043 | 0.4057 | 0.4065

CCCC[P+](C)(CCCC)CCCC.COS(=O)(=O)[O-] + CN(C)C=O
100 kPa
Conditions | viscosity [mPa·s]
293.15 K, x1 = 0.4272 | 67.15
303.15 K, x1 = 0.8837 | 286.5
318.15 K, x1 = 0.6717 | 59.15
323.15 K, x1 = 0.7768 | 84.15

CC(N)(CO)CO + O
viscosity [mPa·s], 101.3 kPa
Conditions | 303.15 K | 313.15 K | 323.15 K
x1 = 0.019 | 1.127 | 0.9018 | 0.7417
x1 = 0.041 | 1.683 | 1.307 | 1.045
x1 = 0.068 | 2.681 | 1.999 | 1.567

CC1(c2ccccc2)OC1C#N (stereo not given) + ClC(Cl)(Cl)Cl
101 kPa, x1 = 0.024
Conditions | viscosity [mPa·s]
293.15 K | 1.041
298.15 K | 0.964
303.15 K | 0.902
313.15 K | 0.8
323.15 K | 0.723

C=C(C)C(=O)OC + CC(C)O
viscosity [mPa·s], 101.3 kPa
Conditions | 298.15 K | 308.15 K
x1 = 0.0556 | 1.716 | 1.339
x1 = 0.1557 | 1.314 | 1.051
x1 = 0.2605 | 1.034 | 0.845
x1 = 0.3541 | 0.862 | 0.717
x1 = 0.4318 | 0.76 | 0.638
x1 = 0.5041 | 0.689 | 0.583
x1 = 0.5537 | 0.651 | 0.553
x1 = 0.6557 | 0.596 | 0.509
x1 = 0.7561 | 0.567 | 0.484
x1 = 0.8542 | 0.559 | 0.477
x1 = 0.9512 | 0.571 | 0.483

C=C(C)C(=O)OC + COCCO
viscosity [mPa·s], 101.3 kPa
Conditions | 298.15 K | 308.15 K
x1 = 0.0557 | 1.449 | 1.149
x1 = 0.1541 | 1.237 | 1.01
x1 = 0.2554 | 1.068 | 0.892
x1 = 0.3538 | 0.941 | 0.799
x1 = 0.4561 | 0.836 | 0.72
x1 = 0.4992 | 0.799 | 0.691
x1 = 0.553 | 0.759 | 0.658
x1 = 0.6543 | 0.696 | 0.606
x1 = 0.7542 | 0.65 | 0.564
x1 = 0.8539 | 0.616 | 0.529
x1 = 0.9543 | 0.592 | 0.502

C[N+](C)(C)CCC[N+]1(C)CCCCC1.N#C[N-]C#N.N#C[N-]C#N + CCO
viscosity [mPa·s], 100 kPa
Conditions | 293.15 K | 303.15 K | 323.15 K
x1 = 0.5002 | 280.5 | – | 70.55
x1 = 0.7998 | – | 828.4 | –

ClCCCCCCCl + C1CCCCC1
viscosity [mPa·s], 101 kPa
Conditions | x1 = 0.07055 | x1 = 0.1468 | x1 = 0.2554 | x1 = 0.3491 | x1 = 0.4438 | x1 = 0.5446 | x1 = 0.6382 | x1 = 0.7449 | x1 = 0.8743
308.15 K | 0.796 | 0.835 | 0.893 | 0.948 | 1.022 | 1.113 | 1.206 | 1.322 | 1.467
313.15 K | 0.721 | 0.759 | 0.818 | 0.873 | 0.947 | 1.036 | 1.126 | 1.246 | 1.387
318.15 K | 0.681 | 0.711 | 0.76 | 0.804 | 0.865 | 0.942 | 1.027 | 1.133 | 1.259

C=C(C)C(=O)OC + CCCCOCCO
viscosity [mPa·s], 101.3 kPa
Conditions | 298.15 K | 308.15 K
x1 = 0.0589 | 2.45 | 1.998
x1 = 0.1467 | 2.063 | 1.704
x1 = 0.2571 | 1.682 | 1.408
x1 = 0.3556 | 1.416 | 1.196
x1 = 0.4555 | 1.201 | 1.021
x1 = 0.5016 | 1.117 | 0.952
x1 = 0.5559 | 1.028 | 0.878
x1 = 0.6734 | 0.868 | 0.742
x1 = 0.7556 | 0.778 | 0.664
x1 = 0.857 | 0.686 | 0.583
x1 = 0.9547 | 0.613 | 0.518

O=C(O)CCCC(=O)O + C[N+](C)(C)CCO.[Cl-]
100 kPa, x2 = 0.5
Conditions | viscosity [mPa·s]
293.15 K | 2968
298.15 K | 2015
303.15 K | 1408
308.15 K | 1007
313.15 K | 735.8
318.15 K | 547.5
323.15 K | 414.6

ClCCCCCCCl + Cc1ccccc1
viscosity [mPa·s], 101 kPa
Conditions | x1 = 0.07864 | x1 = 0.1578 | x1 = 0.2467 | x1 = 0.3346 | x1 = 0.4309 | x1 = 0.533 | x1 = 0.6475 | x1 = 0.755 | x1 = 0.8707
308.15 K | 0.536 | 0.604 | 0.676 | 0.764 | 0.868 | 0.978 | 1.121 | 1.267 | 1.44
313.15 K | 0.514 | 0.57 | 0.639 | 0.712 | 0.807 | 0.911 | 1.043 | 1.175 | 1.345
318.15 K | 0.49 | 0.543 | 0.605 | 0.682 | 0.769 | 0.865 | 0.983 | 1.095 | 1.228

C[n+]1ccn(CC(=O)O)c1.[Cl-] + O
298.15 K, 101 kPa
Conditions | viscosity [mPa·s]
x1 = 0.0009 | 0.911
x1 = 0.001 | 0.915
x1 = 0.002 | 0.917

C=C(C)C(=O)OC + ClC(Cl)Cl
303.15 K, 101 kPa
Conditions | viscosity [mPa·s]
x1 = 0.0522 | 0.5364
x1 = 0.1301 | 0.5505
x1 = 0.3102 | 0.5767
x1 = 0.4132 | 0.5808
x1 = 0.5161 | 0.5747
x1 = 0.7435 | 0.5589
x1 = 0.8591 | 0.542
